Drawing on patent publication US20090118274A1, “MONOCYCLIC AMINOPROPYL TETRAHYDRO-PYRAZOLO-PYRIDINE MODULATORS OF CATHEPSIN S” (priority 2007, published 2009), this text covers IC50 for 24 molecules.

T1 sequence (P25774 115-331): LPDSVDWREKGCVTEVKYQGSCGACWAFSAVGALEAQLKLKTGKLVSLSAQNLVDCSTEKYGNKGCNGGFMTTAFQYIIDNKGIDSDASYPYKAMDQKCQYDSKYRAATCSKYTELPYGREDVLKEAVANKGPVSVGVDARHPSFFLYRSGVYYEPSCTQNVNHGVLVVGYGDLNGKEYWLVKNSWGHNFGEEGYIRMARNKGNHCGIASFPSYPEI

One experiment concerns the target T1, Recombinant human cathepsin S (CatS) (Homo sapiens, UniProt P25774).
T1 construct: made in house
As to the kind of experiment: Recombinant human cathepsin S (CatS) fluorogenic substrate inhibition assay. Format: biochemical.
Conditions: not given
Here is the method: Recombinant human cathepsin S (CatS) was expressed in the baculovirus system and purified in one step with a thiopropyl-sepharose column. […] The assay is run in 150 mM sodium acetate pH 5.0 containing 1.5 mM DTT and 150 mM NaCl. […] Measurements are taken every min for 20 min. The rate is calculated from the slope of the increase in fluorescence and the percent inhibition is calculated from this.
As to `CS(=O)(=O)N1CCc2c(c(-c3ccc(C(F)(F)F)c(CNC(=O)Oc4ccccc4)c3)nn2CCCN2CCC3(CCNC3=O)CC2)C1` [Example 148, (5-{5-Methanesulfonyl-1-[3-(1-oxo-2,8-diaza-spiro[4.5]dec-8-yl)-propyl]-4,5,6,7-tetrahydro-1H-pyrazolo[4,3-c]pyridin-3-yl}-2-trifluoromethyl-benzyl)-carbamic acid phenyl ester], the IC50 is 200 nM.

The same experiment, now with this note: average of results obtained; substrate Z-Valine-Valine-Arginine-AMC 10 μM, pH 5.0; read-out: CatS IC50.
For `CS(=O)(=O)N1CCc2c(c(-c3ccc(Cl)c(CNC(=O)c4ccccc4)c3)nn2CC(O)CN2CCCCCC2)C1` (stereo not drawn) [Example 170, N-{5-[1-(3-Azepan-1-yl-2-hydroxy-propyl)-5-methanesulfonyl-4,5,6,7-tetrahydro-1H-pyrazolo[4,3-c]pyridin-3-yl]-2-chloro-benzyl}-benzamide], the IC50 was 560 nM.

Take `CS(=O)(=O)N1CCc2c(c(-c3ccc(C(F)(F)F)c(CNC(=O)c4ccc(F)cc4)c3)nn2CC(O)CN2CCCCC2)C1` (stereo not drawn) [Example 24, 4-Fluoro-N-{5-[1-(2-hydroxy-3-piperidin-1-yl-propyl)-5-methanesulfonyl-4,5,6,7-tetrahydro-1H-pyrazolo[4,3-c]pyridin-3-yl]-2-trifluoromethyl-benzyl}-benzamide]: the IC50 came to 250 nM. On to `CS(=O)(=O)N1CCc2c(c(-c3ccc(C(F)(F)F)c(CNC(=O)c4cccc(C#N)c4)c3)nn2CC(O)CN2CCCC2)C1` (stereo not drawn) [Example 159, 3-Cyano-N-{5-[1-(2-hydroxy-3-pyrrolidin-1-yl-propyl)-5-methanesulfonyl-4,5,6,7-tetrahydro-1H-pyrazolo[4,3-c]pyridin-3-yl]-2-trifluoromethyl-benzyl}-benzamide], for which the IC50 worked out at 290 nM.

Consider `CS(=O)(=O)N1CCc2c(c(-c3ccc(Cl)c(CCC(=O)Nc4ccccc4)c3)nn2CCCN2CCOCC2)C1` [Example 292, 3-{2-Chloro-5-[5-methanesulfonyl-1-(3-morpholin-4-yl-propyl)-4,5,6,7-tetrahydro-1H-pyrazolo[4,3-c]pyridin-3-yl]-phenyl}-N-phenyl-propionamide], for which the IC50 is 2550 nM. For the molecule `CC(=O)NC1CCN(CC(O)Cn2nc(-c3ccc(C(F)(F)F)c(CNC(=O)CC(C)C)c3)c3c2CCN(S(C)(=O)=O)C3)CC1` (stereo not drawn) [Example 250, N-(5-{1-[3-(4-Acetylamino-piperidin-1-yl)-2-hydroxy-propyl]-5-methanesulfonyl-4,5,6,7-tetrahydro-1H-pyrazolo[4,3-c]pyridin-3-yl}-2-trifluoromethyl-benzyl)-3-methyl-butyramide], the IC50 came to 50 nM. As to `CS(=O)(=O)N1CCc2c(c(-c3ccc(C(F)(F)F)c(CNC(=O)c4cccc(F)c4)c3)nn2CC(O)CN2CCCC2)C1` (stereo not drawn) [Example 215, 3-Fluoro-N-{5-[1-(2-hydroxy-3-pyrrolidin-1-yl-propyl)-5-methanesulfonyl-4,5,6,7-tetrahydro-1H-pyrazolo[4,3-c]pyridin-3-yl]-2-trifluoromethyl-benzyl}-benzamide], the IC50 was 580 nM. As to `CS(=O)(=O)N1CCc2c(c(-c3ccc(C(F)(F)F)c(CNC(=O)c4cc(Cl)cc(Cl)c4)c3)nn2CC(O)CN2CCCC2)C1` (stereo not drawn) [Example 218, 3,5-Dichloro-N-{5-[1-(2-hydroxy-3-pyrrolidin-1-yl-propyl)-5-methanesulfonyl-4,5,6,7-tetrahydro-1H-pyrazolo[4,3-c]pyridin-3-yl]-2-trifluoromethyl-benzyl}-benzamide], the IC50 came to 610 nM. For `CNC(=O)NC1CCN(CC(O)Cn2nc(-c3ccc(Cl)c(CNC(=O)c4ccc(F)cc4)c3)c3c2CCN(S(C)(=O)=O)C3)CC1` (stereo not drawn) [Example 77, N-[2-Chloro-5-(1-{2-hydroxy-3-[4-(3-methyl-ureido)-piperidin-1-yl]-propyl}-5-methanesulfonyl-4,5,6,7-tetrahydro-1H-pyrazolo[4,3-c]pyridin-3-yl)-benzyl]-4-fluoro-benzamide], the IC50 is 30 nM. Still for that read-out and setting: the same measure for `CC(C)=CC(=O)NCc1cc(-c2nn(CC(O)CN3CCC(F)(F)CC3)c3c2CN(S(C)(=O)=O)CC3)ccc1C(F)(F)F` (stereo not drawn) [Example 31, 3-Methyl-but-2-enoic acid 5-{1-[3-(4,4-difluoro-piperidin-1-yl)-2-hydroxy-propyl]-5-methanesulfonyl-4,5,6,7-tetrahydro-1H-pyrazolo[4,3-c]pyridin-3-yl}-2trifluoromethyl-benzylamide]: 110 nM; for `CC(C)=CC(=O)NCc1cc(-c2nn(CC(O)CN3CCC(O)C3)c3c2CN(S(C)(=O)=O)CC3)ccc1C(F)(F)F` (stereo not drawn) [Example 32, 3-Methyl-but-2-enoic acid 5-{1-[2-hydroxy-3-(3-hydroxy-pyrrolidin-1-yl)-propyl]-5-methanesulfonyl-4,5,6,7-tetrahydro-1H-pyrazolo[4,3-c]pyridin-3-yl}-2-trifluoromethyl-benzylamide]: 270 nM.

Turning to `CS(=O)(=O)N1CCc2c(c(-c3ccc(C(F)(F)F)c(CNC(=O)c4ccc(N)cc4)c3)nn2CC(O)CN2CCCC2)C1` (stereo not drawn) [Example 165, 4-Amino-N-{5-[1-(2-hydroxy-3-pyrrolidin-1-yl-propyl)-5-methanesulfonyl-4,5,6,7-tetrahydro-1H-pyrazolo[4,3-c]pyridin-3-yl]-2-trifluoromethyl-benzyl}-benzamide], the IC50 turned out to be 440 nM. Turning to `C/N=c1/ccccn1CC(O)Cn1nc(-c2ccc(Cl)c(CNC(=O)c3ccc(F)cc3)c2)c2c1CCN(S(C)(=O)=O)C2` (stereo not drawn) [Example 221, N-(2-Chloro-5-{1-[2-hydroxy-3-(2-methylimino-2H-pyridin-1-yl)-propyl]-5-methanesulfonyl-4,5,6,7-tetrahydro-1H-pyrazolo[4,3-c]pyridin-3-yl}-benzyl)-4-fluoro-benzamide], the IC50 was 670 nM.

For the molecule `CS(=O)(=O)N1CCc2c(c(-c3ccc(C(F)(F)F)c(CNCc4ccccc4)c3)nn2CC(O)CN2CCCC2)C1` (stereo not drawn) [Example 205, 1-{3-[3-(Benzylamino-methyl)-4-trifluoromethyl-phenyl]-5-methanesulfonyl-4,5,6,7-tetrahydro-pyrazolo[4,3-c]pyridin-1-yl}-3-pyrrolidin-1-yl-propan-2-ol], the IC50 is 1630 nM. Still for that read-out and setting: in the case of `CS(=O)(=O)N1CCc2c(c(-c3ccc(Cl)c(CNC(=O)/C=C/c4ccccc4)c3)nn2CCCN2CCCC2)C1` [Example 219, N-{2-Chloro-5-[5-methanesulfonyl-1-(3-pyrrolidin-1-yl-propyl)-4,5,6,7-tetrahydro-1H-pyrazolo[4,3-c]pyridin-3-yl]-benzyl}-3-phenyl-acrylamide] it was 640 nM. As to `CS(=O)(=O)N1CCc2c(c(-c3ccc(Cl)c(CNC(=O)c4ccc(F)cc4)c3)nn2CC(O)CN2CCCC(O)C2)C1` (stereo not drawn) [Example 74, N-(2-Chloro-5-{1-[2-hydroxy-3-(3-hydroxy-piperidin-1-yl)-propyl]-5-methanesulfonyl-4,5,6,7-tetrahydro-1H-pyrazolo[4,3-c]pyridin-3-yl}-benzyl)-4-fluoro-benzamide], the IC50 is 300 nM. On the same count and under the same terms, the same measure for `CS(=O)(=O)N1CCc2c(c(-c3ccc(C(F)(F)F)c(CNC(=O)c4ccc(O)cc4)c3)nn2CC(O)CN2CCCC2)C1` (stereo not drawn) [Example 156, 4-Hydroxy-N-{5-[1-(2-hydroxy-3-pyrrolidin-1-yl-propyl)-5-methanesulfonyl-4,5,6,7-tetrahydro-1H-pyrazolo[4,3-c]pyridin-3-yl]-2-trifluoromethyl-benzyl}-benzamide]: 260 nM; for `CC(C)CC(=O)NCc1cc(-c2nn(CC(O)CN3CCC(NC(=O)OC(C)(C)C)CC3)c3c2CN(S(C)(=O)=O)CC3)ccc1C(F)(F)F` (stereo not drawn) [Example 244]: 50 nM. As for `CS(=O)(=O)N1CCc2c(c(-c3ccc(C(F)(F)F)c(CNC(=O)c4ccc(F)cc4F)c3)nn2CC(O)CN2CCCC2)C1` (stereo not drawn) [Example 101, 2,4-Difluoro-N-{5-[1-(2-hydroxy-3-pyrrolidin-1-yl-propyl)-5-methanesulfonyl-4,5,6,7-tetrahydro-1H-pyrazolo[4,3-c]pyridin-3-yl]-2-trifluoromethyl-benzyl}-benzamide], the IC50 turned out to be 440 nM. Consider `CC(C)=CC(=O)NCc1cc(-c2nn(CC(O)CN3CCCC(CN(C)C)C3)c3c2CN(S(C)(=O)=O)CC3)ccc1C(F)(F)F` (stereo not drawn) [Example 271, 3-Methyl-but-2-enoic acid 5-{1-[3-(3-dimethylaminomethyl-piperidin-1-yl)-2-hydroxy-propyl]-5-methanesulfonyl-4,5,6,7-tetrahydro-1H-pyrazolo[4,3-c]pyridin-3-yl}-2-trifluoromethyl-benzylamide], for which the IC50 turned out to be 580 nM.

With `CC(=O)N1CCc2c(c(-c3ccc(C(F)(F)F)c(CNC(=O)c4ccc(F)cc4)c3)nn2CC(O)CN2CCC3(CCNC3=O)CC2)C1` (stereo not drawn) [Example 7, N-(5-{5-Acetyl-1-[2-hydroxy-3-(1-oxo-2,8-diaza-spiro[4.5]dec-8-yl)-propyl]-4,5,6,7-tetrahydro-1H-pyrazolo[4,3-c]pyridin-3-yl}-2-trifluoromethylbenzyl)-4-fluoro-benzamide], the IC50 came out at 70 nM. As to `CS(=O)(=O)N1CCc2c(c(-c3ccc(C(F)(F)F)c(CNC(=O)C4CCCCC4)c3)nn2CC(O)CN2CCCC2)C1` (stereo not drawn) [Example 168, Cyclohexanecarboxylic acid 5-[1-(2-hydroxy-3-pyrrolidin-1-yl-propyl)-5-methanesulfonyl-4,5,6,7-tetrahydro-1H-pyrazolo[4,3-c]pyridin-3-yl}-2-trifluoromethyl-benzylamide], the IC50 turned out to be 500 nM. Same read-out and setting: the same measure for `CS(=O)(=O)N1CCc2c(c(-c3ccc(Cl)c(CNC(=O)c4ccc(Cl)c(Cl)c4)c3)nn2CCCN2CCCC2)C1` [Example 87, 3,4-Dichloro-N-{2-chloro-5-[5-methanesulfonyl-1-(3-pyrrolidin-1-yl-propyl)-4,5,6,7-tetrahydro-1H-pyrazolo[4,3-c]pyridin-3-yl]-benzyl}-benzamide]: 1020 nM; for `CS(=O)(=O)N1CCc2c(c(-c3ccc(Cl)c(CCC(=O)Nc4ccc(F)cc4)c3)nn2CCCN2CCOCC2)C1` [Example 293, 3-{2-Chloro-5-[5-methanesulfonyl-1-(3-morpholin-4-yl-propyl)-4,5,6,7-tetrahydro-1H-pyrazolo[4,3-c]pyridin-3-yl]-phenyl}-N-(4-fluoro-phenyl)-propionamide]: 3000 nM.
